# Assay results as given in patent US20240189291A1, “Prevention And Treatment Of Atrial Fibrillation/Flutter With Gamma-Ketoaldehyde Scavengers” (Vanderbilt University, priority 2016, published 2024).
# Several values for one entry are separate records, joined by “and”; a condition that tells them apart may be missing. Equal values may be shown once. Entries after “also recorded” stand apart in the source; their conditions may differ. Read-outs that look alike come from different tables or passages of the source.
# Key:
# atrial HL-1 cells [1] = assay: Rapid pacing of cultured atrial HL-1 cells (cellular model simulating AF); format: cell-based
# Excerpt: Protein oligomers and IsoLGs in a cellular model simulating AF. […] Moreover, exposure of unpaced cells to a physiologic concentration of IsoLGs caused cytosolic PAO production, similar to that observed with rapid pacing (FIG. 4, top panels).
# [2] = test system: hypertensive (ang II) mice; assay: Murine model of ang II-mediated hypertension with inducible AF; format: in vivo; conditions: for AF burden / AF susceptibility (total inducible AF): 2-HOBA and 4-HOBA 1G/L in drinking water
# Excerpt: Experimental hypertension: Evidence for IsoLGs in AF susceptibility. Oxidative stress and PAO burden in human atrium are linked to HTN. […] The present inventors have determined that IsoLGs are mediators for AF susceptibility in HTN using a murine model (2 wk mini-pump infusion of angiotensin II [ang II]), in which mice develop sustained HTN and inducible AF. […] Importantly, mass spectrometry data have confirmed this finding (FIG. 5B), with a striking 100 fold increase in atrial adduct formation during HTN (2-3 fold greater increase than that seen in Alzheimer's brain). In addition, PAOs accumulated in the atria of hypertensive compared to control mice (FIGS. 5C and D). […] As expected, hypertensive mice developed inducible AF compared to control (FIG. 7). […] Normalization of BP in ang II-treated mice with hydralazine/HCTZ prevented AF susceptibility, while mechanical stretch of atrial myocytes generated both LG adducts (FIG. 9) and PAOs (not shown), signifying a critical role of atriomyocyte stretch. The AF substrate was reversible by 2 wks after stopping ang II (85% reduction in total AF burden), with partial normalization of BP (74%; n=13, data not shown). Of note, 2-HOBA had no effects on any ECG parameters in HTN mice.
# [3] = test system: mice fed a high-fat diet (HFD); assay: Mouse model of diet-induced obesity (DIO) with inducible AF; format: in vivo; conditions: 12 weeks, co-treatment
# Excerpt: Experimental obesity: Evidence for IsoLGs in AF susceptibility. Given that obesity is also linked to inflammation and oxidative stress, we have begun studies to investigate the role of IsoLGs in a mouse model of diet-induced obesity (DIO). […] Thus, in the early stages of both HTN and obesity, the present inventors show a role for IsoLGs in the AF substrate. In both HTN and obesity, AF was inducible in the absence of fibrosis, with reversibility in HTN. These findings imply that IsoLGs constitute an early pathologic target, and that their inhibition could potentially prevent the development of AF. In the proposed studies, we will confirm the critical role of IsoLGs using rigorous experimental approaches. For these studies, we use well-characterized murine models of HTN and obesity described above and routinely employed.
# The following data are for 12 week-treated animals.
# [4] = test system: hypertensive (ang II) mice; conditions: ang II-mediated HTN in mice, earlier work (Kirabo and colleagues), cited from earlier work
# IsoLGs = conditions: cited from earlier work
# ROS = conditions: cited from earlier work
# COX1 = COX1 (Homo sapiens, UniProt P23219); conditions: cited from earlier work
# Sequence of COX1 (P23219 24-599): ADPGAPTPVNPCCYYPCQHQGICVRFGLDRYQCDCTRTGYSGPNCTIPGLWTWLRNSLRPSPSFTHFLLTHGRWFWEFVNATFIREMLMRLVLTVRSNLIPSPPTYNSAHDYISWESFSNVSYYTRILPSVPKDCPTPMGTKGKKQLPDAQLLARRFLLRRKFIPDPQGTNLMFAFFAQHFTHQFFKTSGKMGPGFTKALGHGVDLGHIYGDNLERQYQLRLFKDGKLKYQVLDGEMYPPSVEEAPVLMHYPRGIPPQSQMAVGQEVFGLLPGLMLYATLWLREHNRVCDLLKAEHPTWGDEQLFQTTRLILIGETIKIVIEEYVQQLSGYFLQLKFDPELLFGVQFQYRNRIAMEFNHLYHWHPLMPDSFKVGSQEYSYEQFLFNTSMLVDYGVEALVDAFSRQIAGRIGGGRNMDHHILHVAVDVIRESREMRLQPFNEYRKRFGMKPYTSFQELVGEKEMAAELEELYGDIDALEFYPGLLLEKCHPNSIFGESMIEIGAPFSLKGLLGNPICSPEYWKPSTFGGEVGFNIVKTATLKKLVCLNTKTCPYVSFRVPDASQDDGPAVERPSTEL
# COX2 = molecular target: T1, COX2 (Homo sapiens, UniProt P35354); conditions: cited from earlier work
# T1 sequence (P35354 18-604): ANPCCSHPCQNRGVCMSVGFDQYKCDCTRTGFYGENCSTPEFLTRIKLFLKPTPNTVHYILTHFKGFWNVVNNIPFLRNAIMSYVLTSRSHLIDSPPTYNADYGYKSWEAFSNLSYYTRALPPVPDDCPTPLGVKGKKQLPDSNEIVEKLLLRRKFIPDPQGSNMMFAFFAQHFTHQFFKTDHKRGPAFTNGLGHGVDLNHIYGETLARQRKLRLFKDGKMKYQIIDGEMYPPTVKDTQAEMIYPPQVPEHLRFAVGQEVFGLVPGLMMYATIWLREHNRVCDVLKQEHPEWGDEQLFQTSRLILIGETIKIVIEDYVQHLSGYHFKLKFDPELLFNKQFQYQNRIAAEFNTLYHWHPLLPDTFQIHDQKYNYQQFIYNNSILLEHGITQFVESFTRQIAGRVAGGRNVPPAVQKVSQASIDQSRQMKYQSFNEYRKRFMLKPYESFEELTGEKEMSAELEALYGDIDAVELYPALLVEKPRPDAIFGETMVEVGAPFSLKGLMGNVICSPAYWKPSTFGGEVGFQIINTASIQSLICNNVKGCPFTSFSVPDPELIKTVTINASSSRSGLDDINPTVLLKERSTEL
# [5] = test system: mouse model of Alzheimer's disease; conditions: cited from earlier work
# [6] = in vitro studies, in vivo studies in mice, pre-clinical toxicology studies; cited from earlier work
# atrial HL-1 cells [7] = assay: Cytotoxicity of ANP oligomers to atrial HL-1 cells (ATP production); format: cell-based; conditions: peptide oligomers, 24 hr exposure; listed as ANP oligomers
# Procedure: Mutant ANP is highly fibrillogenic, generating cytotoxic PAOs. To compare oligomer formation between WT and mutant ANP, Western analysis was performed on peptides allowed to oligomerize at 23° C. for variable time points. […] For amyloid β1-42, oligomer toxicity is a transient, time-dependent phenomenon, in the progression from monomers to PAOs to fibrils. To investigate this process for WT and mutant ANP, peptides incubated in vitro to generate oligomers over different time periods were incubated with atrial HL-1 cells for 24 hr. For WT ANP, proteotoxicity (manifested by decreased cellular ATP production) was maximal for PAOs generated during a 2 wk incubation, while for mutant ANP, the time point of maximal oligomer cytotoxicity occurred much earlier, within ˜3 d (FIG. 14). Cytotoxicity was confirmed by measuring cellular oxygen consumption rate using extracellular flux analysis (Seahorse Bioscience XFE96). Thus, oligomers formed by both WT and mutant ANP cause atrial myocyte dysfunction, as evidenced by reduced cardiomyocyte ATP production, with proteotoxicity occurring earlier for mutant compared to WT ANP, consistent with accelerated oligomer formation.
# [8] = rapidly paced atrial HL-1 cells in presence of compound
# [9] = ang II-treated hypertensive mice, 1G/L in drinking water
# [10] = ang II-treated hypertensive mice
compound,measurement,setting,value
"NCc1ccccc1O [2-HOBA, 2-hydroxybenzylamine]",PAO formation,atrial HL-1 cells [1]; [8],virtually eliminated and 2-HOBA prevents
same,myocyte stress response (transcriptional upregulation of Nppb and Hspa1a),atrial HL-1 cells [1]; [8],blunted
same,isoLG adducts,atrial HL-1 cells [1]; rapidly-beating atrial cell model,2-HOBA prevents
same,ECG parameters,[2]; HTN mice,no effects
same,atrial IsoLG adducts,[2]; [9],prevents and markedly reduced and 2-HOBA reduces
same,atrial PAO formation,[2]; [9],prevents and markedly reduced and 2-HOBA reduces
same,AF burden / AF susceptibility (total inducible AF),[2]; [10],suppressed and markedly reduced and 2-HOBA reduces
same,AF burden (total inducible AF),[3],suppressed and markedly suppressed and 2-HOBA reduces
same,blood pressure / antihypertensive effect,[4],effectively lowered; also recorded: prominent antihypertensive effect
same,blood pressure / antihypertensive effect,[4]; listed as salicylamine,remarkable therapeutic benefit
same,dicarbonyl scavenging activity,IsoLGs,can also scavenge other injurious lipid dicarbonyl compounds such as MDA
same,rate of reaction with IsoLGs compared to IsoLG binding to the ε-amine of lysine,IsoLGs,much more rapid rate (by several orders of magnitude)
same,ROS levels,ROS,does not reduce ROS levels significantly
same,concentrations of O2·− or F2-Isoprostanes,ROS; during in vitro oxidation,do not affect
same,inhibition of COX1 enzyme,COX1,does not inhibit
same,inhibition of COX2 enzyme,COX2,does not inhibit
same,development of cognitive impairment / therapeutic benefit,[5],prevent
same,development of cognitive impairment / therapeutic benefit,[5]; listed as salicylamine,remarkable therapeutic benefit
same,safety profile,[6],excellent safety profile
"NCc1ccc(O)cc1 [4-HOBA, reference compound]",AF burden / AF susceptibility (total inducible AF),[2]; [10],had no effect
same,AF burden (total inducible AF),[3],had no effect; also recorded: did not
same,dicarbonyl scavenging activity,IsoLGs,cannot scavenge dicarbonyls
"WT ANP: wild-type atrial natriuretic peptide (28 amino acids), incubated to form oligomers",cytotoxicity (ATP production by atrial HL-1 cells),atrial HL-1 cells [7],reduced ATP production; also recorded: cytotoxic
"hydralazine/hydrocholorothiazide [hydralazine/HCTZ, reference compound]",AF burden / AF susceptibility (total inducible AF),[2]; [10],prevented
same,blood pressure (BP),[2]; ang II-treated mice,Normalization
